Where two headings read alike, the source gives them in different places. Each block holds one compound with its values, some of them ahead of it.
System: mouse macrophage (RAW 264.7 cell)
Experiment: Inhibition of NO production (nitrite by Greiss reaction) in LPS-treated mouse macrophages
Assay type: cell-based
Settings: for IC50: Mus musculus
Source text: This embodiment uses an analytical method to induce the macrophage of an inflaming mouse, with combination of Greiss reaction, to measure nitrites so as to indirectly measure the output of nitrogen monoxide (NO). As NO is a significant factor in the inflaming reaction, the output of NO can be used to evaluate the degree of inflaming reaction.
In brief, culture mouse macrophage (RAW 264.7 cell) pre-cultured in a 75 cm^2 culture dish in a 96 well plate at a density of 2×10^5 cells/well. The culture solution used is DMEM with 10% FBS, 100 units/mL penicillin and 100 μg/mL streptomycin. The culturing environment is 37° C. and 5% CO2 cell incubator. Let the normally attaching cells pass or not pass the LPS (1 μg/mL) processing with addition or no addition of the compounds obtained from Embodiment II. Then, use Greiss reaction to measure the concentration of nitrites in the upper clarified liquid of the culture solution after culturing the cells.
The experimental results are shown in FIG. 3, wherein, the ability of each compound to inhibit production of NO is shown through the method of IC50. IC50 represents 50% of the inhibiting concentration, i.e., […]. From the data in the figure, it is known that the compounds obtained from Embodiment II all manifest an effect of inhibiting production of NO, i.e., an anti-inflammation effect.

[1] = RAW 264.7 cells, LPS 1 μg/mL, FIG. 3

Compound: C=C(C)C#Cc1c(C)c2c(c(OC)c1OC)OCO2 [Compound h, Antrocamphin C]
anti-inflammation ability (inhibiting production of NO), in words [1]: excellent anti-inflammation ability

Compound: C=C(C)C#Cc1c(OC)cc(OC)c(OC)c1C [Compound d, Antrocamphin A]
anti-inflammation ability (inhibiting production of NO), in words [1]: excellent anti-inflammation ability

Compound: C=C(CC[C@@H](C(=O)O)[C@H]1CC[C@@]2(C)C3=CC[C@H]4C(C)(C)[C@@H](O)CC[C@]4(C)C3=CC[C@]12C)C(C)C [Compound m, Dehydroeburicoic acid]
IC50 (RAW264.7, read-out: IC50 of inhibiting production of NO): > 20 µg/mL
IC50 (RAW264.7, read-out: IC50 of inhibiting production of NO (approximate range)): 20 to 35 µg/mL

IC50 (RAW264.7, RAW 264.7 cells, LPS 1 μg/mL, nitrites by Greiss reaction, FIG. 3, printed in brackets as 'about', read-out: IC50 of inhibiting production of NO (approximate range)): 20 to 35 µg/mL
IC50 (RAW264.7, RAW 264.7 cells, LPS 1 μg/mL, nitrites by Greiss reaction, FIG. 3, read-out: IC50 of inhibiting production of NO): > 20 µg/mL
Compound: COc1cc(C)c(OC)c2c1OCO2 [Compound b, 1,4-dimethoxy-2,3-methylenedioxy-5-methylbenzene]

— patent publication US8791156B2, “Polyacetylene compound, an extract containing the same and application thereof” (priority 2011, dated 2014)
